Assay results taken from US20070231320A1, “Eggs having increased antibody titer and methods for making same” (priority 2006, published 2007).

What was measured:
Assay type in all cases: in vivo, Hyline-98 leghorn hens
[1] = test system: anti-PLA2 antibody titer in egg yolk; experiment: Egg yolk anti-PLA2 antibody titer by ELISA, third trial: indomethacin or aspirin in feed from day 14 after antigen; conditions: FIG. 3, inhibitor in feed from day 14 after PLA2 injection; for presence of anti-PLA2 antibodies in eggs: 21 days after exposure
Procedure: (§1) Eggs were cracked and the yolks and albumin were separated. The antibodies were extracted by a 1:10 dilution of yolk in acidified PBS (pH 5.0) for twelve hours. Antibody titer was assayed by enzyme-linked immunosorbent assay (ELISA) at twenty-eight, thirty-five and forty-two days after exposure to the antigen. Optical density was measured at 450 nm using an HRP enzyme reaction to detect antibody. A standard on each plate was defined as a “positive reaction,” which is defined as twice the optical density of an egg yolk diluted 1:2000 from a hen not immunized against the antigen.
In a third set of experiments, the hens were divided at 245 days of age into three treatment groups. On day one, the three groups were injected at the four sites with 1 ml total of 3 mg PLA2/ml of CFA and PBS in a 50/50 mixture. A control group (n=8) was fed standard breeder's mash for the entire trial. Starting on day fourteen after exposure to the antigen, a first test group (n=8) was fed standard breeder's mash supplemented with 50 mg of indomethacin/kg diet and a second test group (n=8) was fed standard breeder's mash supplemented with 1 g aspirin/kg diet.
Antibody titer was determined as in the first two trials at twenty-one, twenty-eight and sixty-three days after the injection of PLA2.

[2] = test system: anti-PLA2 antibody titer in egg yolk; experiment: Egg yolk anti-PLA2 antibody titer by ELISA, second trial: indomethacin or aspirin in feed for 24 h before antigen; conditions: for anti-PLA2 antibody titer in eggs vs control hens / presence of anti-PLA2 antibodies in eggs: FIG. 2, 50 mg indomethacin/kg diet or 1 g aspirin/kg diet for 24 h before PLA2 injection; for anti-PLA2 antibody titer in eggs vs control hens: 35 and 42 days after exposure; for presence of anti-PLA2 antibodies in eggs: 21 days after exposure
Procedure: as §1
In a second set of trials, the hens were divided at 300 days of age into three treatment groups. For twenty-four hours after the groups were established, a control group (n=6) was fed standard breeder's mash, a first test group (n=6) was fed standard breeder's mash supplemented with 50 mg of indomethacin/kg diet, and a second test group (n=6) was fed standard breeder's mash supplemented with 1 g aspirin/kg diet. After twenty-four hours, the three groups were injected at the four sites with 1 ml total of 3 mg PLA2/ml of CFA and PBS in a 50/50 mixture. Booster injections were given as described above.
Antibody titer was determined as in the first trial at twenty-one, twenty-eight, thirty-five and forty-two days after exposure to the antigen.

[3] = test system: anti-PLA2 antibody titer in egg yolk; experiment: Egg yolk anti-PLA2 antibody titer by ELISA, first trial: COX inhibitor in feed for 24 h before antigen; conditions: 50 mg indomethacin/kg diet for 24 h before PLA2 injection
Procedure: Hyline-98 leghorn hens were randomly assigned to treatment groups and given free access to standard breeder's mash and water. In a first set of trials, the hens were divided at 245 days of age into two treatment groups. For twenty four hours after the groups were established, a control group (n=6) was fed standard breeder's mash and a test group (n=6) was fed standard breeder's mash supplemented with 50 mg of indomethacin/ kg diet. After twenty four hours, both groups were injected intramuscularly (i.m.) at four sites (each breast muscle and each leg muscle) with 1 ml total of 3 mg PLA2/ml of complete Freund's adjuvant (CFA; Sigma, St. Louis, Mo.) and phosphate buffered saline (PBS) in a 50/50 mixture. Hens were given an i.m. booster injection over the four sites seven days after initial injection with 1 ml total of a 3 mg PLA2/ml of incomplete Freund's adjuvant (IFA; Sigma) and PBS in a 50/50 mixture.
as §1

Compound | anti-PLA2 antibody titer in eggs compared to control ([1]; 21 and 28 days after exposure) | presence of anti-PLA2 antibodies in eggs [1] | anti-PLA2 antibody titer in eggs compared to control ([1]; 63 days after exposure) | anti-PLA2 antibody titer of eggs relative to eggs from control hens ([2]; 1 g aspirin/kg diet for 24 h before PLA2 injection, 42 days after exposure) | effectiveness at increasing antibody titer, aspirin compared with indomethacin ([2]; 1 g aspirin/kg diet vs 50 mg indomethacin/kg diet for 24 h before PLA2 injection) | anti-PLA2 antibody titer in eggs vs control hens [2] | presence of anti-PLA2 antibodies in eggs [2] | anti-PLA2 antibody titer of eggs relative to eggs from control hens ([3]; 42 days after exposure) | anti-PLA2 antibody titer in eggs vs control hens ([3]; FIG. 1, 28, 35 and 42 days after exposure) | presence of antigen-specific anti-PLA2 antibodies in eggs ([3]; FIG. 1, by 28 days after exposure)
CC(=O)Oc1ccccc1C(=O)O [aspirin] | not significantly different | contained anti-PLA2 antibodies | control group had a higher antibody titer | nearly three times | more effective | significantly increased | had anti-PLA2 antibodies |  |  | 
COc1ccc2c(c1)c(CC(=O)O)c(C)n2C(=O)c1ccc(Cl)cc1 [indomethacin] | not significantly different | contained anti-PLA2 antibodies | control group had a higher antibody titer |  |  | significantly increased | had anti-PLA2 antibodies | nearly triple | significantly increased | contained antigen-specific anti-PLA2 antibodies
